Among the data in ChEMBL document CHEMBL1201862, “PubChem BioAssay data set” (2004) are CC50, EC50 and IC50 values, retold here.

Assay [1] is described as follows: viability of uninfected HEp-2 cells – cell-based, HTS, cytotoxicity control for RSV inhibitor project, dose response (AID 2410). In kind it is functional. As to conditions: human respiratory syncytial virus.
Assay [2] has as its target T1, RNA-binding protein pos-1 (Caenorhabditis elegans, UniProt G5EF15).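 Note: purified POS-1 fused to maltose binding protein made in E. coli; potency of compounds blocking POS-1 binding to fluorescent RNA.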
T1 sequence (G5EF15 whole entry): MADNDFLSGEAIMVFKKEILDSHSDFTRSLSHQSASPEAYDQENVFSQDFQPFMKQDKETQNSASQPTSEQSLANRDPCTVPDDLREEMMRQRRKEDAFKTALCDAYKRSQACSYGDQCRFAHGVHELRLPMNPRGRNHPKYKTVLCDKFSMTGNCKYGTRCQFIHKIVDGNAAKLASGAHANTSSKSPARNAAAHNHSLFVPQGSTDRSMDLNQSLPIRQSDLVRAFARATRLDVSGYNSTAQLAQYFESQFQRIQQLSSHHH
Kind of assay: disruptors of C. elegans POS-1 RNA interaction – biochemical, fluorescence polarization, dose response (AID 1964). (Polarisation of emitted light reports the rotation of a fluorescent probe.)

The target in assay [3] is T2, Zinc finger protein mex-5 (Caenorhabditis elegans, UniProt Q9XUB2).
T2 sequence (Q9XUB2 whole entry): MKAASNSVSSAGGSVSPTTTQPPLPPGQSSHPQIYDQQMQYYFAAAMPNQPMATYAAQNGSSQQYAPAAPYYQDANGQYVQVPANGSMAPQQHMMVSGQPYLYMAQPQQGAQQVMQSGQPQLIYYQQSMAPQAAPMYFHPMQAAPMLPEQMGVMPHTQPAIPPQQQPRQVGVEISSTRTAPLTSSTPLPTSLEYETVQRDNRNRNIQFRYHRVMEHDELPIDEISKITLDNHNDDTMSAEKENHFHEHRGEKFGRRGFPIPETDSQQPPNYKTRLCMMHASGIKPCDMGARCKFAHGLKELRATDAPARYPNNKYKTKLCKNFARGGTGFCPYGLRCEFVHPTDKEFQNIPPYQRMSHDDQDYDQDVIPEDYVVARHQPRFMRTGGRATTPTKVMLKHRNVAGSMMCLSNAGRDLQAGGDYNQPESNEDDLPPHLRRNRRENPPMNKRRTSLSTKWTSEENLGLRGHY
Kind of assay: potency of MEX-5 RNA-binding blockers – biochemical, C. elegans, fluorescence polarization, dose response (AID 1960).

The target of assay [4] is T3, Heat shock factor protein 1 (Mus musculus, UniProt P38532).
T3 sequence (P38532 whole entry): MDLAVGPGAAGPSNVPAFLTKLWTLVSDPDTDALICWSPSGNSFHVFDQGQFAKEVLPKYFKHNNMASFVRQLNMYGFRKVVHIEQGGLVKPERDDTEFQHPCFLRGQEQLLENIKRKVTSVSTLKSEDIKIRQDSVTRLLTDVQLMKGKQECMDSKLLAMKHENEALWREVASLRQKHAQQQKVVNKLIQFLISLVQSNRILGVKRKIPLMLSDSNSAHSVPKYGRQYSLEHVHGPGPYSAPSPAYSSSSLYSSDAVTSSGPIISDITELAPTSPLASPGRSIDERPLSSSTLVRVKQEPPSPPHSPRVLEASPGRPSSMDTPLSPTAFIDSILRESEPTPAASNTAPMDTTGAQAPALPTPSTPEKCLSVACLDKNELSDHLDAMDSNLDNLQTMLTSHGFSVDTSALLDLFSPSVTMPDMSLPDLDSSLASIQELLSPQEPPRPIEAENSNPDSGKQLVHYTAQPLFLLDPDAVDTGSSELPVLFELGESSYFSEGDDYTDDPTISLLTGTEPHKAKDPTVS
Kind of assay: decrease of HSF1-responsive luciferase luminescence – cell-based, NIH3T3, dose retest, confirmation (AID 2382).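 Note: NIH3T3 fibroblasts with HSF1-driven luciferase reporter stressed by proteasome inhibitor MG132; luminescence from HSF1-driven luciferase expression after 8 hours of MG132 stress.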 It is filed as functional.

Assay [5] deals with T4, Corticotropin-releasing factor receptor 2/Corticotropin-releasing factor-binding protein (Homo sapiens, UniProt P24387+Q13324).
T4 sequence (Q13324 whole entry): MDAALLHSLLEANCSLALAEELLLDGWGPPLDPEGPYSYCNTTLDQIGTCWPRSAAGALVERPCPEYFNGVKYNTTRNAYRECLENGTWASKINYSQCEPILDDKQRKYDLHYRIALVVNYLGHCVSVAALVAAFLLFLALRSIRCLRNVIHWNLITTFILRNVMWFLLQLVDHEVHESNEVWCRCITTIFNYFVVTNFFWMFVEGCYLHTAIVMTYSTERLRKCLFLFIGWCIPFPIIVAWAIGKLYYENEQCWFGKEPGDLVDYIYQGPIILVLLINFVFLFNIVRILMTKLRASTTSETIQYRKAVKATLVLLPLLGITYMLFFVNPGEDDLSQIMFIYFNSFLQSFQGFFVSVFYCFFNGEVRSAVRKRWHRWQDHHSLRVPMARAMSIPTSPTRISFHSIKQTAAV
T4 sequence (P24387 whole entry): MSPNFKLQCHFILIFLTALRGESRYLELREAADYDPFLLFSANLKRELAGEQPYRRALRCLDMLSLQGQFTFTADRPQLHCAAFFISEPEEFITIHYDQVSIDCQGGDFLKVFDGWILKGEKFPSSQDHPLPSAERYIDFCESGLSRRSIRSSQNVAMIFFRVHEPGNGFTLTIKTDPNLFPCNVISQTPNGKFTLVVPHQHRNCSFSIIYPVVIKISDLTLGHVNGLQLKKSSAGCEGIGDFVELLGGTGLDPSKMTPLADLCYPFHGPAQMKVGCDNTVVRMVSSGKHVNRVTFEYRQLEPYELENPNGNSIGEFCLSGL
Briefly: activators of CRF receptor 2 with binding protein – uHTS hits, confirmation (AID 602473). In kind it is functional. As to conditions: read-out: EC50_Mean.

The target in assay [6] is T4, Corticotropin-releasing factor receptor 2/Corticotropin-releasing factor-binding protein. Kind of assay: Dose Response confirmation of uHTS hits for small molecule antagonists of the CRF-binding protein and CRF-R2 receptor complex. In kind it is functional. As to conditions: read-out: IC50_Mean.

One may read the CC50 as the concentration giving 50% cytotoxicity.

Active and inactive are the calls of the source. Cut-off read from the data, not from the text of the source, for most assays here: actives have a measured EC50 and inactives only a lower limit.

`O=C1N=C(Nc2cccc(O)c2)S/C1=C\c1cccc([N+](=O)[O-])c1`: the 50% cytotoxic concentration (CC50) in assay [1] is > 50 µM (active).
As to `COC(=O)CCCC1=CC2=CC(=O)C(C)(OC(=O)C3CCCC3)C(=O)C2=CO1` (stereo unspecified), the EC50 is 23.3 µM (active) in assay [2] and 57.7 µM (inconclusive) in assay [3].
Regarding `Cc1n[nH]c(-c2ccc(OCc3cnn(-c4ccccc4)c3)c(C)c2O)c1Oc1ccccc1`, the 50% cytotoxic concentration (CC50) in assay [1] was 14.6 µM (active).
As for `CC1=C(C#N)C(=O)N(C)C(=O)/C1=C\NNc1ccc(F)cc1`, the EC50 in assay [2] and in assay [3] was > 300 µM (not active) in each case.
With `Cc1c(OCC(=O)NCC(O)c2ccccc2)ccc2c3c(c(=O)oc12)CCCC3` (stereo unspecified), the CC50 in assay [1] was 48.5 µM (active).
Still for that read-out and setting: the figure for `CCc1ccc(C2=NNC(=Nc3c(C)n(C)n(-c4ccccc4)c3=O)SC2)cc1` is 20.1 µM (active).
As for `COc1ccc(CN(CCCN2CCOCC2)C(=O)Nc2cccc(Cl)c2)cc1OC`, in assay [4], the EC50 is > 195 µM (not active).
As for `CCOP(=O)(OCC)C(Nc1cccc([N+](=O)[O-])c1)c1ccccc1` (stereo unspecified), the EC50 is > 53 µM (inactive) in assay [5], > 300 µM (not active) in assay [2] and > 300 µM (not active) in assay [3]. Besides, in assay [6], the IC50 is > 47.1 µM (inactive).
For `CC1=Nc2ccc(C)c3nc(C)cc(c23)N1c1ccc(C)cc1`, in assay [4], the EC50 is reported as > 195 µM (not active). For the same compound, in assay [1], the CC50 was > 50 µM (active).
For the compound `COC(=O)CNc1cccc(C(F)(F)F)c1`, the EC50 in assay [2] and in assay [3] was > 300 µM (not active) throughout.
Regarding `CC(N1CCOC1=O)S(=O)(=O)c1ccccc1` (stereo unspecified), in assay [4], the EC50 was > 195 µM (not active).
On the same count and under the same terms, the figure for `CCN(CC)S(=O)(=O)c1cccc(NC(=O)CCNC(=O)NC23CC4CC(CC(C4)C2)C3)c1` is > 195 µM (not active).
Turning to `N#Cc1ccc(CN2CCN(CC(=O)NCCc3ccc(Cl)cc3Cl)CC2)cc1`, the half-maximal cytotoxic concentration (CC50) in assay [1] is 22.9 µM (active).
Consider `CCOC(=O)Nc1ccccc1C(=O)Nc1cc(C)cc(C)c1`, for which the EC50 in assay [4] is > 195 µM (not active).
Consider `CC(Oc1ccc(Cl)cc1Cl)C(=O)Nc1cccc(O)c1` (stereo unspecified), for which the cytotoxic concentration (CC50) in assay [1] was 27.2 µM (active).
Take `COc1ccc(N(C)C(=O)CN(C)S(=O)(=O)c2ccc3c(c2)c(=O)n(C)c(=O)n3C)c(OC)c1`: the EC50 in assay [4] is 120 µM (active).
Same read-out and setting: to `CCN(CC(=O)N1CCCC1)S(=O)(=O)c1ccc(F)cc1` belongs > 195 µM (not active).
Take `CSc1cccc(NC(=O)N2CCc3ccc(NC(=O)c4ccccn4)cc3C2)c1`: the cytotoxic concentration (CC50) in assay [1] was 14.4 µM (active).
For `Cc1c(-c2nc[nH]n2)sc(C#N)c1-c1ccccc1`, the EC50 in assay [5] was > 53 µM (inactive). Further, the CC50 in assay [1] is 24.4 µM (active). Besides, in assay [6], the IC50 is > 47.1 µM (inactive).
Regarding `Cc1[nH]c2ccccc2c1C(C[N+](=O)[O-])c1cccs1` (stereo unspecified), the EC50 in assay [4] was > 195 µM (not active).
`Cc1ccccc1OCCNC(=O)c1ccc2ccccc2n1`: the CC50 in assay [1] was 24.5 µM (active).
In the case of `N#Cc1c(N)n(-c2cccc(C(=O)O)c2)c2nc3ccccc3nc12`, the EC50 in assay [5] is 13.7 µM (active); in assay [2] it was > 300 µM (not active); in assay [3] it was > 300 µM (not active). For the same compound, the IC50 in assay [6] was > 47.1 µM (inactive).
Consider `CC(=O)c1c(O)cc(O)cc1CC(=O)O`, for which the values for the EC50 in assay [2] and in assay [3] were > 300 µM (inconclusive) and 190 µM (inconclusive), respectively.
Consider `CC1(C)C(=O)NCCN1C(=O)CSc1nccc(-c2ccc(Br)cc2)n1`, for which the CC50 in assay [1] is 34.1 µM (active).
With `COc1ccc(/C(C)=N/Nc2nc3ccccc3nc2C)cc1OC`, the figures for the EC50 in assay [2] and in assay [3] were 5.07 µM (inconclusive) and 66.5 µM (inconclusive), respectively.
Regarding `CSc1ccc(/C=N/n2nnnc2N)cc1`, the CC50 in assay [1] was 48.5 µM (active).
For `CCCCN1C(=O)C(CC(=O)NCC)S/C1=N/c1ccccc1` (stereo unspecified), the EC50 in assay [4] is > 195 µM (not active).
